Assay results reported in the supplement of paper PMC10307832.

compound: COC1=CC=C(C=C1)CN2C=CC3=C2C=C(C=C3)C(=O)NO + Nc1ncn([C@H]2C[C@H](O)[C@@H](CO)O2)c(=O)n1 [Decitabine] (partner 2 µM); test: relative viability (nuclei count vs DMSO), 5 days (fraction); higher = more cells survive; details: first compound 0.08 µM
In short: (§1)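 Relative viability was taken as the ratio of nuclei in treated wells to nuclei in vehicle wells. Lung cancer cell lines in 1536-well plates received compounds by pin tool one day after seeding, either one drug alone or a fixed anchor-drug dose plus five library-drug doses (not always all listed) in √10 steps. Nuclei were counted on 4× images after 5 days of treatment, and values are medians of duplicate plates.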

| Cell Line | relative viability |
| --- | --- |
| LC-2-ad | 0.853 |
| NCI-H1651 | 0.584 |
| COR-L23 | 0.378 |
| HCC-827 | 0.292 |
| LCLC-103H | 0.731 |
| RERF-LC-KJ | 0.74 |
| NCI-H3122 | 0.467 |
| BEN | 0.677 |
| NCI-H2085 | 0.561 |
| A-427 | 0.263 |
| NCI-H727 | 0.813 |
| NCI-H838 | 0.441 |
| 201T | 0.843 |
| NCI-H1666 | 0.639 |
| NCI-H650 | 0.298 |
| NCI-H1993 | 0.602 |
| HCC-44 | 0.943 |
| NCI-H647 | 0.509 |
| NCI-H2126 | 0.574 |
| NCI-H1755 | 0.632 |
| PC-3 [JPC-3] | 0.764 |
| NCI-H1792 | 0.523 |
| NCI-H2087 | 0.25 |
| NCI-H441 | 0.258 |
| HOP-62 | 0.173 |
| NCI-H2347 | 0.612 |
| NCI-H1355 | 0.326 |
| NCI-H1915 | 0.239 |

same assay, conditions: first compound 0.253 µM

| Cell Line | relative viability |
| --- | --- |
| LC-2-ad | 0.871 |
| NCI-H1651 | 0.52 |
| COR-L23 | 0.465 |
| HCC-827 | 0.271 |
| LCLC-103H | 0.812 |
| RERF-LC-KJ | 0.675 |
| NCI-H3122 | 0.479 |
| BEN | 0.726 |
| UMC-11 | 0.369 |
| LCLC-97TM1 | 0.224 |
| NCI-H2085 | 0.571 |
| NCI-H727 | 0.866 |
| NCI-H838 | 0.455 |
| 201T | 0.867 |
| LOU-NH91 | 0.828 |
| NCI-H1666 | 0.797 |

| Cell Line | relative viability |
| --- | --- |
| NCI-H650 | 0.306 |
| ChaGo-K-1 | 0.502 |
| NCI-H1993 | 0.599 |
| HCC-44 | 0.992 |
| NCI-H647 | 0.401 |
| NCI-H2126 | 0.535 |
| NCI-H1755 | 0.737 |
| NCI-H1792 | 0.619 |
| NCI-H2087 | 0.295 |
| NCI-H441 | 0.239 |
| HOP-62 | 0.217 |
| NCI-H2347 | 0.691 |
| HARA | 0.493 |
| NCI-H1355 | 0.357 |
| NCI-H1915 | 0.284 |

same assay, conditions: first compound 0.8 µM

| Cell Line | relative viability |
| --- | --- |
| LC-2-ad | 0.81 |
| NCI-H1651 | 0.616 |
| COR-L23 | 0.456 |
| HCC-827 | 0.356 |
| LCLC-103H | 0.761 |
| RERF-LC-KJ | 0.645 |
| NCI-H3122 | 0.484 |
| BEN | 0.702 |
| UMC-11 | 0.595 |
| LCLC-97TM1 | 0.236 |
| NCI-H2085 | 0.639 |
| A-427 | 0.554 |
| NCI-H727 | 0.792 |
| NCI-H838 | 0.476 |
| 201T | 0.856 |
| LOU-NH91 | 0.831 |
| NCI-H1666 | 0.81 |

| Cell Line | relative viability |
| --- | --- |
| NCI-H650 | 0.359 |
| ChaGo-K-1 | 0.526 |
| NCI-H1993 | 0.526 |
| HCC-44 | 0.974 |
| NCI-H647 | 0.434 |
| NCI-H2126 | 0.578 |
| NCI-H1755 | 0.64 |
| PC-3 [JPC-3] | 0.775 |
| NCI-H1792 | 0.479 |
| NCI-H2087 | 0.288 |
| NCI-H441 | 0.258 |
| HOP-62 | 0.216 |
| NCI-H2347 | 0.681 |
| HARA | 0.6 |
| NCI-H1355 | 0.347 |
| NCI-H1915 | 0.259 |

same assay, conditions: first compound 2.53 µM

| Cell Line | relative viability |
| --- | --- |
| LC-2-ad | 0.773 |
| NCI-H1651 | 0.566 |
| COR-L23 | 0.407 |
| HCC-827 | 0.287 |
| LCLC-103H | 0.779 |
| RERF-LC-KJ | 0.738 |
| NCI-H3122 | 0.468 |
| BEN | 0.664 |
| UMC-11 | 0.575 |
| LCLC-97TM1 | 0.225 |
| NCI-H2085 | 0.593 |
| A-427 | 0.584 |
| NCI-H727 | 0.705 |
| NCI-H838 | 0.456 |
| 201T | 0.863 |
| LOU-NH91 | 0.851 |
| NCI-H1666 | 0.659 |

| Cell Line | relative viability |
| --- | --- |
| NCI-H650 | 0.3 |
| ChaGo-K-1 | 0.525 |
| NCI-H1993 | 0.675 |
| HCC-44 | 0.988 |
| NCI-H647 | 0.426 |
| NCI-H2126 | 0.585 |
| NCI-H1755 | 0.743 |
| PC-3 [JPC-3] | 0.833 |
| NCI-H1792 | 0.469 |
| NCI-H2087 | 0.319 |
| NCI-H441 | 0.237 |
| HOP-62 | 0.27 |
| NCI-H2347 | 0.61 |
| HARA | 0.587 |
| NCI-H1355 | 0.403 |
| NCI-H1915 | 0.275 |

same assay, conditions: first compound 8 µM

| Cell Line | relative viability |
| --- | --- |
| LC-2-ad | 0.816 |
| NCI-H1651 | 0.579 |
| COR-L23 | 0.357 |
| HCC-827 | 0.308 |
| LCLC-103H | 0.681 |
| RERF-LC-KJ | 0.599 |
| NCI-H3122 | 0.386 |
| BEN | 0.618 |
| UMC-11 | 0.509 |
| LCLC-97TM1 | 0.181 |
| NCI-H2085 | 0.549 |
| A-427 | 0.5 |
| NCI-H727 | 0.909 |
| NCI-H838 | 0.505 |
| 201T | 0.817 |
| LOU-NH91 | 0.824 |
| NCI-H1666 | 0.723 |

| Cell Line | relative viability |
| --- | --- |
| NCI-H650 | 0.296 |
| ChaGo-K-1 | 0.488 |
| NCI-H1993 | 0.613 |
| HCC-44 | 0.881 |
| NCI-H647 | 0.405 |
| NCI-H2126 | 0.621 |
| NCI-H1755 | 0.683 |
| PC-3 [JPC-3] | 0.832 |
| NCI-H1792 | 0.458 |
| NCI-H2087 | 0.192 |
| NCI-H441 | 0.276 |
| HOP-62 | 0.244 |
| NCI-H2347 | 0.577 |
| HARA | 0.534 |
| NCI-H1355 | 0.311 |
| NCI-H1915 | 0.262 |

compound: C[C@]1(c2nc3c(C(N)=O)cccc3[nH]2)CCCN1 [Veliparib] + C[C@@H](Oc1cc(-c2cnn(C3CCNCC3)c2)cnc1N)c1c(Cl)ccc(F)c1Cl [Crizotinib] (partner 1 µM); test: as above; details: first compound 0.02 µM
In short: as §1

| Cell Line | relative viability |
| --- | --- |
| LC-2-ad | 0.458 |
| NCI-H1651 | 0.926 |
